These are literature values, as cited in patent publication US12667577B2, “Pharmaceutical composition, and aprepitant injection and freeze-dried powder injection” (WISDOM PHARMACEUTICAL CO., LTD, priority 2022, dated 2026).

The structures appear in SMILES notation. Values after ≈ are worked out from the molar mass of the structure shown.

The target of data set [1] is human substance P neurokinin-1 (NK1) receptor (Homo sapiens, UniProt P25103).
Another data set concerns the target T1, glucocorticoid receptor (Homo sapiens, UniProt P04150).
T1 sequence (P04150 1-777): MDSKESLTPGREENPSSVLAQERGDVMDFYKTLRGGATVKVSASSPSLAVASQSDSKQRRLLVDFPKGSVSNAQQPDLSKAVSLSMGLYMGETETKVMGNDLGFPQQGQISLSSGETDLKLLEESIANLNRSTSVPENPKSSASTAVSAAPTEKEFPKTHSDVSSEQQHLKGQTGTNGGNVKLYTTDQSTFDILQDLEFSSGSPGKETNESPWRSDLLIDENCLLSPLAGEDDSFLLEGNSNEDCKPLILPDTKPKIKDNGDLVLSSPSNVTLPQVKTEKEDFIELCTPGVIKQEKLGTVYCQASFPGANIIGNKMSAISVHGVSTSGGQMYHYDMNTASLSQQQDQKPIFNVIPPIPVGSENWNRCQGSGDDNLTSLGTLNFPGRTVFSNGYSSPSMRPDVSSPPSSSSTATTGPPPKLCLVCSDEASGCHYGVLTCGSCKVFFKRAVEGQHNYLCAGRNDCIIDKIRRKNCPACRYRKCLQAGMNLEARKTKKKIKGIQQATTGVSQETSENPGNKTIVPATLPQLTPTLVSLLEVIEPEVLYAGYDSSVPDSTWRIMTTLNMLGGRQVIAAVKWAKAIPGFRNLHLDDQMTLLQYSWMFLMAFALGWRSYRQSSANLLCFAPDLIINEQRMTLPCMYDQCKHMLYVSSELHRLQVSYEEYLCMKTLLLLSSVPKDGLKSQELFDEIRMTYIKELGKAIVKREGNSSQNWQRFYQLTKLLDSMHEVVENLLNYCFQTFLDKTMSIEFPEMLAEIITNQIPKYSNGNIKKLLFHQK

For data set [2] the following is noted: clinical data.
In data set [3] the target is T2, 5-hydroxytryptamine receptor 3 (5-HT3) (Homo sapiens, UniProt P46098).
T2 sequence (P46098 24-478): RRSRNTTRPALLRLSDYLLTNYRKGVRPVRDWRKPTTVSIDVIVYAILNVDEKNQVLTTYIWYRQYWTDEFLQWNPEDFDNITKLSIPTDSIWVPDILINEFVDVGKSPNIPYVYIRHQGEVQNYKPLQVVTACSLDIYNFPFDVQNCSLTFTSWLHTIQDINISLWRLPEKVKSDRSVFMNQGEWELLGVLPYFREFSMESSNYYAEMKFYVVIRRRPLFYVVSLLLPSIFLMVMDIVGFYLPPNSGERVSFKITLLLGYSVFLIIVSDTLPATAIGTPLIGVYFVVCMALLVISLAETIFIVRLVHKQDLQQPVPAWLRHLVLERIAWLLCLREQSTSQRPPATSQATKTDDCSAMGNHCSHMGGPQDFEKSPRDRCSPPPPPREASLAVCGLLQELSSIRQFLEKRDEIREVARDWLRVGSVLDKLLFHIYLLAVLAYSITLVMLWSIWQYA

Sequence of human substance P neurokinin-1 (NK1) receptor (P25103 whole entry): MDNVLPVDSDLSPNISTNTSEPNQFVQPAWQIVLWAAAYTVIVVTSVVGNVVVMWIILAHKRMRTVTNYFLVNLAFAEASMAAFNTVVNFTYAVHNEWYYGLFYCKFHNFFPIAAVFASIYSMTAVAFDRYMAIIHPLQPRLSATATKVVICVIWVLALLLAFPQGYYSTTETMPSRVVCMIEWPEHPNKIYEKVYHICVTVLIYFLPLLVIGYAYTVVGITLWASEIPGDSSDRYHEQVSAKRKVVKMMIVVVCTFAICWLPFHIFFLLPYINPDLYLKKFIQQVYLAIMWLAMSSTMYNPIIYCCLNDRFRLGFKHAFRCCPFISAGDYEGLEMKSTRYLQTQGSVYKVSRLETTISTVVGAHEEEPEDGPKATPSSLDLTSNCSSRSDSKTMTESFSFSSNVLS

On to `C[C@@H](O[C@H]1OCCN(Cc2n[nH]c(=O)[nH]2)[C@H]1c1ccc(F)cc1)c1cc(C(F)(F)F)cc(C(F)(F)F)c1` [aprepitant, Aprepitant], for which, in the data set with dopamine receptor, the “affinity to dopamine receptor” value is “low or no affinity”. Besides, the “affinity to NK1 receptor” value in data set [1] is “high-affinity”. For the same compound, the “affinity to glucocorticoid receptor” value on glucocorticoid receptor is recorded as “low or no affinity”. The classification in biopharmaceutics entry (low dissolution and low permeability) is given as “Class IV”. Where the note is “room temperature”, the “solubility in ethanol, isopropyl acetate, and acetonitrile” value was “slightly soluble”; the solubility in water was 0.55 µg/mL (≈ 1.03 µM). In data set [2], the “adverse effect rate at injection sites” value is reported as 0.5%. In data set [3], the “affinity to 5-HT3” value was “low or no affinity”.
